Measured values as given in patent US20190185829A1, “Preparation of lipase with improved ester synthesis activity by using surfactants” (Jiangnan University, priority 2017, published 2019).

Tests used:
Assay type in all cases: biochemical
[1] = biological target: T1, Pseudomonas cepacia lipase PCL (Burkholderia cepacia, UniProt P22088); assay: Ester synthesis activity of surfactant-treated lyophilized lipase PCL by GC analysis; conditions: surfactant 10 mM, protein 0.2 mg·mL^−1
T1 construct: purchased Sigma-Aldrich Co., Ltd
Description: (§1) (2) Determination of Ester Synthesis Activity of the Lipase by GC Analysis
(§2) Substrate solution A: 48.5 mL of n-octanoic acid is dissolved in 250 mL of n-heptane in a volumetric flask.
(§3) Substrate solution B: 17.5 mL of absolute ethanol is dissolved in 250 mL of n-heptane in a volumetric flask.
(§4) Internal standard: 2-hexanol/n-heptane (35 g·L^−1).
(§5) Standard sample: 10 g of n-octanoate is dissolved in 1000 mL of n-heptane in a volumetric flask.
(§6) 1 mL substrate solution A and substrate solution B are added in a 5 mL Eppendorf tube respectively, then 20 mg lipase powder (or lyophilized powder) is added. The reaction is carried out at 40° C. and with shaking at 150 rpm for 30 min. Remove the lipase powder by centrifugation or membrane filtration. Then 0.1 mL of internal standard is added in 0.4 mL of filtrate or supernatant and mixed. Measure the content of n-octanoate in the mixture above by GC analysis.
(§7) The gas chromatograph (6820, Agilent Instruments) is equipped with a AC20 (PEG20000) capillary column and a FID detector. Nitrogen was used as the carrier gas. The oven temperature was programmed to start at 90° C. for 1 min and then be elevated to 200° C. for 5 min at 10° C.·min^−1. The injector and detector temperatures were set at 250° C.
(§8) Definition of enzyme activity: One unit of ester synthesis activity is defined as the amount of enzyme that esterifies 1 micromole of n-octanoate per min.
(§9) Specific activity: the activity of lipase per milligram of total protein in the lipase preparation.
(§10) Total recovery: the percentage of the activity after a treatment to that before the treatment
(§11) Add an equal volume of high-concentration surfactant solution into the enzyme solution. The final protein concentration was […] and the surfactant concentration was 10 mM. After mixed thoroughly, the mixture was lyophilized and kept in dry condition.
(§12) Commercial lipase PCL was purchased from Sigma-Aldrich Co., Ltd. PCL is a non-immobilized lipase. Dissolve the PCL powder in water and centrifuge to obtain the supernatant containing the PCL lipase that would be regulated to improve the ester synthesis activity by adjusting the final protein concentration to 0.2 mg·mL^−1 and adding surfactants to the final concentration of 10 mM.
(§13) Commercial lipase PCL was purchased from Sigma-Aldrich Co., Ltd. and is a non-immobilized lipase. Dissolve the PCL powder in water, centrifuge to obtain the supernatant and treat the supernatant with different concentrations of surfactant DDM (the final protein concentration was 0.2 mg·mL^−1).

[2] = biological target: T2, Candida antarctica lipase CALB (Moesziomyces antarcticus, UniProt P41365); assay: Hydrolytic activity of surfactant-treated lipase CALB using pNPP as substrate; conditions: surfactant 10 mM, protein 0.12 mg·mL^−1
T2 construct: purchased Sigma-Aldrich Co., Ltd
Description: (§14) (1) Determination of Hydrolytic Activity of the Lipase Using p-Nitrophenyl Palmitate (pNPP) as Substrate
(§15) Hydrolysis of pNPP catalyzed by lipase generates p-nitrophenol and palmitic acid. p-nitrophenol appears yellow in the buffer at pH 8.0 with the maximum absorption peak at 410 nm. Determination of hydrolytic activity can be achieved by measuring the absorbance at 410 nm.
(§16) The substrate solution A: 50 mmol·L^−1 sodium phosphate buffer (pH 8.0) containing 1.16 g·L^−1 sodium deoxycholate and 0.56 g·L^−1 arabic gum. Substrate solution B: 0.015 g pNPP is dissolved in 5 mL isopropyl alcohol. Substrate solution A and substrate solution B are mixed then stored for use afterwards.
(§17) Termination solution: 40 g·L^−1 NaOH, 93.05 g·L^−1 EDTA sodium. Add 62 uL termination solution to the reaction mixture when stopping the reaction.
(§18) Add 0.1 mL appropriately diluted enzyme solution, which is substituted by inactivated enzyme solution as the control, to 2.4 mL substrate solution above, incubate the mixture at 40° C. for 2 min and measure the absorbance at 410 nm.
(§19) one hydrolytic activity unit is defined as the amount of enzyme that catalyzes the formation of 1 μmol of p-nitrophenol in 1 minute at 40° C.
(§20) enzyme activity (U·mL^−1)=(V×A410×10^6)/(ε×t×V′) Calculation equation: […]
(§21) Specific activity: the activity of lipase per milligram of total protein in the lipase preparation. […]
as §12, with “CALB” for “PCL”, “0.12” for “0.2”
(§22) Commercial lipase CALB was purchased from Sigma-Aldrich Co., Ltd. and is a non-immobilized lipase. Dissolve the CALB powder in water, centrifuge to obtain the supernatant and treat the supernatant with different concentrations of surfactant DDM (the final protein concentration was 0.12 mg·mL^−1).

[3] = system: Rhizopus chinensis lipase r27RCL; assay: Hydrolytic activity of surfactant-treated lipase r27RCL using pNPP as substrate; conditions: protein 0.2 mg·mL^−1
Description: as §14, §15, §16, §17, §18, §19, §20, §21
(§23) Commercial lipase r27RCL was purchased from Jiangsu Yiming Biological Technology Co., Ltd, which has high hydrolytic activity and low ester synthesis activity. Dissolve the r27RCL powder in water and centrifuge to obtain the supernatant containing the r27RCL lipase to adjust the ester synthesis activity (the final protein concentration was 0.2 mg·mL^−1 and the final concentration of surfactant was 10 mM, which is between 0.1×CMC^˜200×CMC of the different surfactants in Table 1).
(§24) Commercial lipase r27RCL was purchased from Jiangsu Yiming Biological Technology Co., Ltd. r27RCL is a lipase with high hydrolytic activity but low ester synthesis activity. Dissolve the r27RCL powder in water, centrifuge to obtain the supernatant and treat the supernatant with different concentrations of surfactant LPC14 (the final protein concentration was 0.2 mg·mL^−1).

[4] = biological target: T3, Rhizoupus oryzae lipase ROL (Rhizopus oryzae, UniProt P61872); assay: Ester synthesis activity of surfactant-treated lyophilized lipase ROL by GC analysis; conditions: protein 0.2 mg·mL^−1
T3 construct: purchased Sigma-Aldrich Co., Ltd
Description: as §1, §2, §3, §4, §5, §6, §7, §8, §9, §10, §11
as §12, with “lipase ROL” for “lipase PCL”, “Ltd. ROL” for “Ltd. PCL”, “the ROL” for “the PCL”, “improve its” for “improve the”
(§25) Commercial lipase ROL was purchased from Sigma-Aldrich Co., Ltd. and is a non-immobilized lipase. Dissolve the ROL powder in water, centrifuge to obtain the supernatant and treat the supernatant with different concentrations of surfactant LPC14 (the final protein concentration was 0.2 mg·mL^−1).

[5] = biological target: T1, Pseudomonas cepacia lipase PCL; assay: Hydrolytic activity of surfactant-treated lipase PCL using pNPP as substrate; conditions: surfactant 10 mM, protein 0.2 mg·mL^−1
Description: as §14, §15, §16, §17, §18, §19, §20, §21, §12, §13

[6] = biological target: T3, Rhizoupus oryzae lipase ROL; assay: Hydrolytic activity of surfactant-treated lipase ROL using pNPP as substrate; conditions: protein 0.2 mg·mL^−1
Description: as §14, §15, §16, §17, §18, §19, §20, §21
as §12, with “lipase ROL” for “lipase PCL”, “Ltd. ROL” for “Ltd. PCL”, “the ROL” for “the PCL”, “improve its” for “improve the”
as §25

[7] = system: Rhizopus chinensis lipase r27RCL; assay: Ester synthesis activity of surfactant-treated lyophilized lipase r27RCL by GC analysis; conditions: protein 0.2 mg·mL^−1
Description: as §1, §2, §3, §4, §5, §6, §7, §8, §9, §10, §11, §23, §24

[8] = biological target: T2, Candida antarctica lipase CALB; assay: Ester synthesis activity of surfactant-treated lyophilized lipase CALB by GC analysis; conditions: surfactant 10 mM, protein 0.12 mg·mL^−1
Description: as §1, §2, §3, §4, §5, §6, §7, §8, §9, §10, §11
as §12, with “CALB” for “PCL”, “0.12” for “0.2”
as §22

[9] = surfactant concentration 0.1 x CMC
[10] = surfactant concentration 1 x CMC
[11] = surfactant concentration 10 x CMC
[12] = surfactant concentration 100 x CMC

T2 sequence (P41365 26-342): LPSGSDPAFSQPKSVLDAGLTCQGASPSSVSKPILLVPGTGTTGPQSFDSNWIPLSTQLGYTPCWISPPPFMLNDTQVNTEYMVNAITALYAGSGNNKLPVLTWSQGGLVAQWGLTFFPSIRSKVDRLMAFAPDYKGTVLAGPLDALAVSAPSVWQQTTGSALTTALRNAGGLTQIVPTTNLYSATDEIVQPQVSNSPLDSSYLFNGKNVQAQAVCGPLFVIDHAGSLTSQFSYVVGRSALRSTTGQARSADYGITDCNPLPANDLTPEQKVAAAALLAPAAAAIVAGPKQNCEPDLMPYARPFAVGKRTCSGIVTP
T1 sequence (P22088 45-364): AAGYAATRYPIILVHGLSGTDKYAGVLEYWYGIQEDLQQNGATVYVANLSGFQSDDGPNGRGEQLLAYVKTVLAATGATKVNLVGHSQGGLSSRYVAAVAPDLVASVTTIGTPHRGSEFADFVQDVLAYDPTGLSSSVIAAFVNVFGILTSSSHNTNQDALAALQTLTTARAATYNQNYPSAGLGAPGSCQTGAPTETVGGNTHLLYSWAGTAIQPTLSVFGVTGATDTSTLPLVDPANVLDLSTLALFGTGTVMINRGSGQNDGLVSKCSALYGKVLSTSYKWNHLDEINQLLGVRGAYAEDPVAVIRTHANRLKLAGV
T3 sequence (P61872 96-392): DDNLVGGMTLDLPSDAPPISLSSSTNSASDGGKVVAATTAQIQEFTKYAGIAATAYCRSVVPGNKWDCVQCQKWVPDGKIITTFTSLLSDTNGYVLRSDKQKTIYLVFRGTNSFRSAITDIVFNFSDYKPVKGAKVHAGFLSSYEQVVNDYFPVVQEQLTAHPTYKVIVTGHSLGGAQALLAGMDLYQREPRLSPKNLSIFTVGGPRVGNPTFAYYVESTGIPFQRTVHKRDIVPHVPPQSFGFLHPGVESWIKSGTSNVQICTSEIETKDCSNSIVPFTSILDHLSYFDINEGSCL

CCCCCC(=O)OC[C@H](COP(=O)([O-])OCC[N+](C)(C)C)OC(=O)CCCCC [DiC6PC, 1,2-dihexanoyl lecithin]
Ester synthesis activity, Specific activity [1]: 7.1 U · mg^−1 | Ester synthesis activity, Total recovery [1]: 260% | Hydrolytic activity, Specific activity [2]: 0.98 U · mg^−1 | Hydrolytic activity, Total recovery [2]: 85% | Hydrolytic activity, Specific activity ([3]; surfactant 10 mM): 104.2 U · mg^−1 | Hydrolytic activity, Total recovery ([3]; surfactant 10 mM): 87% | Ester synthesis activity, Specific activity ([4]; surfactant 10 mM): 3.11 U · mg^−1 | Hydrolytic activity, Specific activity [5]: 308.2 U · mg^−1 | Hydrolytic activity, Total recovery [5]: 140% | Hydrolytic activity, Specific activity ([6]; surfactant 10 mM): 15.2 U · mg^−1 | Hydrolytic activity, Total recovery ([6]; surfactant 10 mM): 76% | Ester synthesis activity, Specific activity ([7]; surfactant 10 mM): 15.9 U · mg^−1 | Ester synthesis activity, Total recovery ([7]; surfactant 10 mM): 256% | Ester synthesis activity, Specific activity [8]: 31.9 U · mg^−1

CCCCCCCCCCCCCC(=O)OCC(O)COP(=O)([O-])OCC[N+](C)(C)C (stereo not drawn) [LPC14, 1-myristyl 2-acyl-cis-propyltri-phosphatidylcholine]
Ester synthesis activity, Specific activity [1]: 44.6 U · mg^−1 | Hydrolytic activity, Specific activity [2]: 0.54 U · mg^−1 | Hydrolytic activity, Total recovery [2]: 38% | Hydrolytic activity, Total recovery ([3]; surfactant 10 mM): 97% | Hydrolytic activity, Specific activity [3, 9]: 120.2 U · mg^−1 | Hydrolytic activity, Total recovery [3, 9]: 101% | Hydrolytic activity, Specific activity [3, 10]: 122.2 U · mg^−1 | Hydrolytic activity, Total recovery [3, 10]: 102% | Hydrolytic activity, Specific activity [3, 11]: 128.0 U · mg^−1 | Hydrolytic activity, Total recovery [3, 11]: 107% | Hydrolytic activity, Specific activity [3, 12]: 125.7 U · mg^−1 | Hydrolytic activity, Total recovery [3, 12]: 102% | Ester synthesis activity, Specific activity ([4]; surfactant 10 mM): 12.2 U · mg^−1 | Ester synthesis activity, Specific activity [4, 9]: 0.4 U · mg^−1 | Ester synthesis activity, Total recovery [4, 9]: 97% | Ester synthesis activity, Specific activity [4, 10]: 0.2 U · mg^−1 | Ester synthesis activity, Total recovery [4, 10]: 46% | Ester synthesis activity, Specific activity [4, 11]: 1.0 U · mg^−1 | Ester synthesis activity, Total recovery [4, 11]: 240% | Ester synthesis activity, Specific activity [4, 12]: 6.2 U · mg^−1 | Hydrolytic activity, Specific activity [5]: 321.8 U · mg^−1 | Hydrolytic activity, Total recovery [5]: 119% | Hydrolytic activity, Specific activity ([6]; surfactant 10 mM): 33.1 U · mg^−1 | Hydrolytic activity, Total recovery ([6]; surfactant 10 mM): 106% | Hydrolytic activity, Specific activity [6, 9]: 28.7 U · mg^−1 | Hydrolytic activity, Total recovery [6, 9]: 150% | Hydrolytic activity, Specific activity [6, 10]: 27.7 U · mg^−1 | Hydrolytic activity, Total recovery [6, 10]: 139% | Hydrolytic activity, Specific activity [6, 11]: 31.2 U · mg^−1 | Hydrolytic activity, Total recovery [6, 11]: 162% | Hydrolytic activity, Specific activity [6, 12]: 39.0 U · mg^−1 | Hydrolytic activity, Total recovery [6, 12]: 206% | Ester synthesis activity, Specific activity ([7]; surfactant 10 mM): 47.6 U · mg^−1 | Ester synthesis activity, Specific activity [7, 9]: 1.8 U · mg^−1 | Ester synthesis activity, Total recovery [7, 9]: 32% | Ester synthesis activity, Specific activity [7, 10]: 1.4 U · mg^−1 | Ester synthesis activity, Total recovery [7, 10]: 25% | Ester synthesis activity, Specific activity [7, 12]: 17.1 U · mg^−1 | Ester synthesis activity, Total recovery [7, 12]: 292% | Ester synthesis activity, Specific activity [8]: 36.8 U · mg^−1

polyethylene glycol octylphenyl Ether [Triton X-100]
Ester synthesis activity, Specific activity [1]: 6.3 U · mg^−1 | Ester synthesis activity, Total recovery [1]: 174% | Hydrolytic activity, Specific activity [2]: 0 U · mg^−1 | Hydrolytic activity, Total recovery [2]: 0% | Hydrolytic activity, Specific activity ([3]; surfactant 10 mM): 116.6 U · mg^−1 | Hydrolytic activity, Total recovery ([3]; surfactant 10 mM): 93% | Ester synthesis activity, Specific activity ([4]; surfactant 10 mM): 1.7 U · mg^−1 | Ester synthesis activity, Total recovery ([4]; surfactant 10 mM): 200% | Hydrolytic activity, Specific activity [5]: 364.5 U · mg^−1 | Hydrolytic activity, Total recovery [5]: 131% | Hydrolytic activity, Specific activity ([6]; surfactant 10 mM): 34.9 U · mg^−1 | Hydrolytic activity, Total recovery ([6]; surfactant 10 mM): 99% | Ester synthesis activity, Specific activity ([7]; surfactant 10 mM): 12.9 U · mg^−1 | Ester synthesis activity, Total recovery ([7]; surfactant 10 mM): 192% | Ester synthesis activity, Specific activity [8]: 77.4 U · mg^−1
